The text below walks through data of patent publication US20200354348A1, “SEMISYNTHETIC AURONES AND METHODS OF USE THEREOF” (University of Kentucky Research Foundation, priority 2018, published 2020).

The test system of one data set is Myc-induced T-ALL. In words: Anti-leukemia activity in the zebrafish model. The data set is classed as in vivo. Here is the method: Rag2:Myc-GFP zebrafish at 21 days of age were treated with DMSO, Aurone 4a, or 4r in 1.5 mL fish system water in 12-well plates. Zebrafish were treated with compound for 2 days, removed from drug for 1 day, and treated for two more days in fresh compound. Animals were imaged at the start and end of treatment using a fluorescence-equipped dissecting microscope at 350 ms exposure. The GFP image was overlaid onto the bright-field image of each animal in Photoshop, and the percent change in leukemia burden was calculated by normalizing the GFP+ area to the total area of the animal in ImageJ.

For another data set, the system named is MALME-3M. In words: NCI60 screening. The data set is classed as cell-based. The settings on record: Homo sapiens, Melanoma.
In a further data set the test system is NCI-H322M. Briefly: NCI60 screening. The settings on record: Homo sapiens, Non-Small Cell Lung Cancer. The data set is classed as cell-based.
The subject of another data set is tubulin. In words: In vitro tubulin polymerization assay. The data set is classed as biochemical. The settings on record: 5 μM. The procedure: In vitro tubulin polymerization assay. The in vitro tubulin polymerization assay was performed by referring tubulin manufacturer's protocol. Briefly, tubulin powder (Cytoskeleton Inc. USA) was dissolved in cold buffer [100 mM PIPES (pH 6.9), 2 mM MgCl2, 1 mM GTP, and 5% glycerol] on ice. Then aliquots (80 μL, 3.75 μg/μL) of the obtained tubulin solution were divided into the wells of a 96-well half-area plate (Corning, USA). After adding DMSO or testing compounds, the plate was mounted to a Spectra MR™ microplate spectrophotometer equipped with a thermal controller allowing to adjust the temperature to 37° C. (DYNEX Technologies Limited, USA). Readings at 350 nm were recorded every 30 s for 1 hour.

In a further data set the test system is Cdc2 (CDK1). In words: Cdc2 (CDK1) phosphorylation (FIG. 7B). The data set is classed as cell-based.
In a further data set the test system is LS174T cells. In words: Proliferation inhibition assay, LS174T. The data set is classed as cell-based. The settings on record: Homo sapiens, LS174T, Table 2. The procedure:
(§1) Cell Culture. LS174T (colon cancer cells), PC-3 (prostate cancer cells), MCF-7 (beast) and A549 (lung) were cultured in the medium recommended by American Type Culture Collection at 37° C. with 5% CO2 atmosphere in a water jacketed incubator. Ovcar-8 and NCI/ADR-RES are gifts from Dr. Markos Leggas. Alpha-tubulin antibodies, TRITC-conjugated anti-rabbit antibody.
(§2) Proliferation inhibition assay. Cancer cells were seeded into 24-well plates at a density of 20,000 cells per well in 1 mL of culture medium and cultured overnight at 37° C. Compounds and the vehicle control DMSO were added to the cells. After 6 days, medium was removed and 100 μL of trypsin was added. Then the cells resuspended in pbs were counted by Vi-CELL XR 2.03 (Beckman Coulter, Inc. USA). The ratio R of the number of viable cells in the compound treatment group to the number of viable cells in DMSO treatment group was taken as relative growth, and the percentage growth inhibition was calculated as: (1−R)*100. For initial testing, compounds were added to the cells at a final concentration 10 μM. Active compounds at 10 μM would be tested at lower concentrations.

A further data set concerns UACC-257. Briefly: NCI60 screening. The data set is classed as cell-based. The settings on record: Homo sapiens, Melanoma.
Data set [1] deals with PC-3, LS174T and HEK293T cells. In words: Cell morphology. The data set is classed as cell-based. The settings on record: 300 nM, 6 h.
A further data set relates to RPMI58402. Briefly: IC50 in leukemia cell lines. The data set is classed as cell-based. The settings on record: RPMI58402, T-ALL.
Another data set deals with PC-3 cells. In words: Proliferation inhibition assay, PC-3. The data set is classed as cell-based. The settings on record: Homo sapiens, PC-3, Table 2. The procedure: as §1, §2
The test system of another data set is SK-MEL-28. Briefly: NCI60 screening. The data set is classed as cell-based. The settings on record: Homo sapiens, Melanoma.
The next data set relates to NCI/ADR-RES. In words: NCI60 screening. The data set is classed as cell-based.
The next data set has as its system REH. Briefly: IC50 in leukemia cell lines. The settings on record: Homo sapiens, B-ALL. The data set is classed as cell-based.
The subject of another data set is HEK193T cells. Briefly: In vivo microtubule assembly assay in cells. The data set is classed as cell-based. The procedure:
In vivo microtubule assembly assay. The amount of insoluble polymerized microtubules and soluble tubulin dimers in cells after exposure to compounds were detected following the method by Blagosklommy et al. (Cancer research 55, 4623-4626 (1995). Cells were seeded in 6-well plate at 50% confluency and cultured overnight. DMSO or compounds were added and the cells were incubated for additional 6 hours. The medium was removed and cells were washed with PBS three times followed by addition of lysis buffer [20 mM Tris-HCl (pH 6.8), 1 mM MgCl2, 2 mM EGTA, 20 μg/mL aprotinin, 20 μg/mL leupeptin, 1 mM PMSF, 1 mM orthovanadate, and 0.5% NP40]. The lysates were centrifuged at 12000 g for 10 min to obtain supernatants and pellets, where were mixed with loading buffer and boiled. Then standard western blot analysis against β-tubulin was performed as described by our previous work. (ACS Chem Biol 8, 796-803, doi:10.1021/cb3005353 (2013)).

Another data set concerns HCC1007-BL. In words: IC50 in leukemia cell lines. The data set is classed as cell-based. The settings on record: Normal B-Lymphoblast.
Another data set has as its system OVCAR-5. Briefly: NCI60 screening. The data set is classed as cell-based. The settings on record: Homo sapiens, Ovarian Cancer.

Entries after “also recorded” stand apart in the source; their conditions may differ. Some results are limits rather than exact numbers.

On to `CCn1cc(/C=C2\Oc3cc(OCC#N)ccc3C2=O)c2cc(OC)ccc21` [Aurone 4a, (Z)-2-((2-((1-Ethyl-5-methoxy-1H-indol-3-yl)methylene)-3-oxo-2,3-dihydrobenzofuran-6-yl)oxy)acetonitrile], for which, in the data set with Myc-induced T-ALL, the “gross toxicity on zebrafish” value is on record as “no gross toxicity was observed”. Also, the “inhibition of Myc-induced T-ALL” value in the data set with Myc-induced T-ALL (5 days) is listed as “blocked the progress of T-ALL; also recorded: significant inhibition of Myc-induced T-ALL”. Besides, the “decrease in leukemia burden” value in the data set with Myc-induced T-ALL (percent change over treatment, p=0.0011 vs DMSO) is 45.58%. In addition, the 50% growth inhibitory concentration (GI50) in the data set with MALME-3M is more than 100 µM; in the data set with NCI-H322M it was 1.43 µM; in the data set on UACC-257, 67.1 µM; with SK-MEL-28 it was 10.2 µM; in the data set with OVCAR-5, 2.52 µM. In addition, the “tubulin polymerization in vitro” value in the data set with tubulin is “inhibits tubulin polymerization”. The “Cdc2 (CDK1) phosphorylation at tyrosine 15” value in the data set with Cdc2 (CDK1) is reported as “decreasing phosphorylation at tyrosine 15”. Further, the figures for the inhibition at 0.1 µM in the data set with LS174T cells (100 nM) and with PC-3 cells (100 nM) were 11 ± 11% and 58 ± 11%, respectively. In addition, the figures for the inhibition at 0.3 µM in the data set with LS174T cells (300 nM) and in the data set on PC-3 cells (300 nM) were 93 ± 14% and 93 ± 2.8%, respectively. The inhibition at 1 µM came out at 97 ± 0.4% in the data set on LS174T cells (1 μM) and 95 ± 2.5% with PC-3 cells (1 μM). The molecule also came in with an inhibition at 10 µM in the data set with LS174T cells (10 μM) of 96 ± 0.8%. Also, the cell morphology result in data set [1] is on record as “Cell morphologies were changed”. The half-maximal inhibitory concentration (IC50) in the data set on RPMI58402 was found to be 0.301 µM; in the data set with REH, 0.287 µM; with HCC1007-BL, 1.38 µM. In addition, the “cytotoxicity against multidrug-resistant cell line” value in the data set with NCI/ADR-RES (NCI/ADR-RES) is given as “potent cytotoxicity”. Also, the “substrate of P-glycoprotein” value in the data set on NCI/ADR-RES (inferred from NCI/ADR-RES cells expressing P-glycoprotein) was “not likely a substrate of P-glycoprotein”. The “tubulin polymerization in cells” value in the data set with HEK193T cells is recorded as “decreased tubulin polymerization”.

As usually defined, the GI50 is the concentration that inhibits growth by half. Higher therefore signals less potent growth inhibition. What is called inhibition is the relative decrease from the control value, in per cent. As a reminder, the IC50 is the point on the concentration scale where inhibition reaches its midpoint. A lower IC50 goes with greater potency in that assay.
